Calls of active or inactive are those of the source. No rule for the calls is given here.
Tested on: CCRIS mutagenicity, Ames/micronucleus/aberration tests
Assay: CCRIS mutagenicity studies
[1] = Test System: AMES SALMONELLA TYPHIMURIUM, Strain/Indicator: TA98, Metabolic Activation: HAMSTER, LIVER, S-9, AROCLOR 1254 (10%), Method: PREINCUBATION
[2] = Test System: AMES SALMONELLA TYPHIMURIUM, Strain/Indicator: TA98, Metabolic Activation: NONE, Method: PREINCUBATION
[3] = Test System: AMES SALMONELLA TYPHIMURIUM, Strain/Indicator: TA98, Metabolic Activation: RAT, LIVER, S-9, AROCLOR 1254 (10%), Method: PREINCUBATION
[4] = Test System: AMES SALMONELLA TYPHIMURIUM, Strain/Indicator: TA100, Metabolic Activation: HAMSTER, LIVER, S-9, AROCLOR 1254 (10%), Method: PREINCUBATION
[5] = Test System: AMES SALMONELLA TYPHIMURIUM, Strain/Indicator: TA100, Metabolic Activation: NONE, Method: PREINCUBATION
[6] = Test System: AMES SALMONELLA TYPHIMURIUM, Strain/Indicator: TA100, Metabolic Activation: RAT, LIVER, S-9, AROCLOR 1254 (10%), Method: PREINCUBATION
[7] = Test System: AMES SALMONELLA TYPHIMURIUM, Strain/Indicator: TA1535, Metabolic Activation: HAMSTER, LIVER, S-9, AROCLOR 1254 (10%), Method: PREINCUBATION
[8] = Test System: AMES SALMONELLA TYPHIMURIUM, Strain/Indicator: TA1535, Metabolic Activation: NONE, Method: PREINCUBATION
[9] = Test System: AMES SALMONELLA TYPHIMURIUM, Strain/Indicator: TA1535, Metabolic Activation: RAT, LIVER, S-9, AROCLOR 1254 (10%), Method: PREINCUBATION
[10] = Test System: AMES SALMONELLA TYPHIMURIUM, Strain/Indicator: TA1537, Metabolic Activation: HAMSTER, LIVER, S-9, AROCLOR 1254 (10%), Method: PREINCUBATION
[11] = Test System: AMES SALMONELLA TYPHIMURIUM, Strain/Indicator: TA1537, Metabolic Activation: NONE, Method: PREINCUBATION
[12] = Test System: AMES SALMONELLA TYPHIMURIUM, Strain/Indicator: TA1537, Metabolic Activation: RAT, LIVER, S-9, AROCLOR 1254 (10%), Method: PREINCUBATION

Measured: mutagenic call

C=C(C)C(=O)OCC(C)C
inactive: [1] inactive; negative | [2] inactive; negative | [3] inactive; negative | [4] inactive; negative | [5] inactive; negative | [6] inactive; negative | [7] inactive; negative | [8] inactive; negative | [9] inactive; negative | [10] inactive; negative | [11] inactive; negative | [12] inactive; negative

OCCO
inactive: [1] inactive; negative | [2] inactive; negative | Test System: AMES SALMONELLA TYPHIMURIUM, Strain/Indicator: TA98, Metabolic Activation: RAT LIVER S-9, PHENOBARBITAL AND BETA-NAPHTHOFLAVONE, Method: PREINCUBATION inactive; negative | [3] inactive; negative | [4] inactive; negative | [5] inactive; negative | Test System: AMES SALMONELLA TYPHIMURIUM, Strain/Indicator: TA100, Metabolic Activation: RAT LIVER S-9, PHENOBARBITAL AND BETA-NAPHTHOFLAVONE, Method: PREINCUBATION inactive; negative | [6] inactive; negative | [7] inactive; negative | [8] inactive; negative | Test System: AMES SALMONELLA TYPHIMURIUM, Strain/Indicator: TA1535, Metabolic Activation: RAT LIVER S-9, PHENOBARBITAL AND BETA-NAPHTHOFLAVONE, Method: PREINCUBATION inactive; negative | [9] inactive; negative | [10] inactive; negative | [11] inactive; negative | Test System: AMES SALMONELLA TYPHIMURIUM, Strain/Indicator: TA1537, Metabolic Activation: RAT LIVER S-9, PHENOBARBITAL AND BETA-NAPHTHOFLAVONE, Method: PREINCUBATION inactive; negative | [12] inactive; negative | Test System: E.COLI, Strain/Indicator: WP2UVRA, Metabolic Activation: NONE, Method: PREINCUBATION inactive; negative | Test System: E.COLI, Strain/Indicator: WP2UVRA, Metabolic Activation: RAT LIVER S-9, PHENOBARBITAL AND BETA-NAPHTHOFLAVONE, Method: PREINCUBATION inactive; negative | Test System: MOUSE LYMPHOMA, Strain/Indicator: L5178Y (TK+/TK-), Metabolic Activation: NONE, Method: SUSPENSION/PLATE inactive; negative | Test System: MOUSE LYMPHOMA, Strain/Indicator: L5178Y (TK+/TK-), Metabolic Activation: RAT, LIVER, S-9, AROCLOR 1254, Method: SUSPENSION/PLATE inactive; negative

O=C1CCC(=O)N1O
inactive: Test System: AMES SALMONELLA TYPHIMURIUM, Strain/Indicator: TA98, Metabolic Activation: NONE, Method: STANDARD PLATE inactive; negative | Test System: AMES SALMONELLA TYPHIMURIUM, Strain/Indicator: TA98, Metabolic Activation: RAT, LIVER, S-9, AROCLOR 1254, Method: STANDARD PLATE inactive; negative | Test System: AMES SALMONELLA TYPHIMURIUM, Strain/Indicator: TA100, Metabolic Activation: NONE, Method: STANDARD PLATE inactive; negative | Test System: AMES SALMONELLA TYPHIMURIUM, Strain/Indicator: TA100, Metabolic Activation: RAT, LIVER, S-9, AROCLOR 1254, Method: STANDARD PLATE inactive; negative | Test System: AMES SALMONELLA TYPHIMURIUM, Strain/Indicator: TA1535, Metabolic Activation: NONE, Method: STANDARD PLATE inactive; negative | Test System: AMES SALMONELLA TYPHIMURIUM, Strain/Indicator: TA1535, Metabolic Activation: RAT, LIVER, S-9, AROCLOR 1254, Method: STANDARD PLATE inactive; negative | Test System: AMES SALMONELLA TYPHIMURIUM, Strain/Indicator: TA1537, Metabolic Activation: NONE, Method: STANDARD PLATE inactive; negative | Test System: AMES SALMONELLA TYPHIMURIUM, Strain/Indicator: TA1537, Metabolic Activation: RAT, LIVER, S-9, AROCLOR 1254, Method: STANDARD PLATE inactive; negative

From PubChem BioAssay AID1259407 (Chemical Carcinogenesis Research Information System (CCRIS), 2018)
